Patent US12637424B2, “Pharmaceutical salt of an arylpyrrole derivative” (SENTINEL ONCOLOGY LIMITED, priority 2020, dated 2026)

How the values were obtained:
Assay in all cases: DiscoverX KinomeScreen competition binding assay (kinase selectivity panel)
[1] = biological target: T1, panel of ninety-seven kinases (Homo sapiens, UniProt P17612); conditions: PRKACA; screened at 3000 nM
T1 construct: purchased DiscoverX; host or cells: E. coli (BL21-derived, T7 phage display) or HEK-293
Procedure: (§1) This has been investigated by testing atropisomer A-2 for off-target activity against a panel of ninety-seven kinases distributed across the kinome at a concentration of 3 μM using the DiscoverX KinomeScreen assay. The DiscoverX KinomeScreen assay is a site-directed competition binding assay which measures the binding affinity of a compound to a kinase, by use of a solid supported control compound which can bind or capture the kinases in solution. In the absence of a kinase-inhibitor test compound, all of the kinase will bind to the solid support. If a kinase-inhibitor test compound is added to the assay mix, the amount of kinase binding to the solid support will be reduced, the extent of reduction being dependent on the potency of the test compound as a kinase inhibitor. […] For most assays, kinase-tagged T7 phage strains were grown in parallel in 24-well blocks in an E. coli host derived from the BL21 strain. E. coli were grown to log-phase and infected with T7 phage from a frozen stock (multiplicity of infection=0.4) and incubated with shaking at 32° C. until lysis (90-150 minutes). The lysates were centrifuged (6,000×g) and filtered (0.2 μm) to remove cell debris. The remaining kinases were produced in HEK-293 cells and subsequently tagged with DNA for qPCR detection. Streptavidin-coated magnetic beads were treated with biotinylated small molecule ligands for 30 minutes at room temperature to generate affinity resins for kinase assays. The liganded beads were blocked with excess biotin and washed with blocking buffer (SeaBlock (Pierce), 1% BSA, 0.05% Tween 20, 1 mM DTT) to remove unbound ligand and to reduce non-specific phage binding. […] Test compounds were prepared as 40× stocks in 100% DMSO and directly diluted into the assay. All reactions were performed in polypropylene 384-well plates in a final volume of 0.02 ml. […] The beads were then re-suspended in elution buffer (1×PBS, 0.05% Tween 20, 0.5 μM non-biotinylated affinity ligand) and incubated at room temperature with shaking for 30 minutes. The kinase concentration in the eluates was measured by qPCR. Compounds that bind the kinase active site and directly (sterically) or indirectly (allosterically) prevent kinase binding to the immobilized ligand, will reduce the amount of kinase captured on the solid support. […] The strength of binding of the test molecule to the kinase can be expressed as the percent control (% Ctrl) The compound(s) were screened at 3000 nM concentration, and results for primary screen binding interactions are reported as ‘% Ctrl’, where lower numbers indicate stronger hits in the matrix on the following page(s). [formula] • negative control=DMSO (100% Ctrl) • positive control=control compound (0% Ctrl)

[2] = biological target: T2, panel of ninety-seven kinases (Homo sapiens, UniProt Q13153); conditions: PAK1; screened at 3000 nM
T2 construct: purchased DiscoverX; host or cells: E. coli (BL21-derived, T7 phage display) or HEK-293
Procedure: as §1

[3] = biological target: T3, panel of ninety-seven kinases (Homo sapiens, UniProt P31749); conditions: AKT1; screened at 3000 nM
T3 construct: purchased DiscoverX; host or cells: E. coli (BL21-derived, T7 phage display) or HEK-293
Procedure: as §1

[4] = biological target: T4, panel of ninety-seven kinases (Homo sapiens, UniProt Q16539); conditions: MAPK14; screened at 3000 nM
T4 construct: purchased DiscoverX; host or cells: E. coli (BL21-derived, T7 phage display) or HEK-293
Procedure: as §1

[5] = biological target: T5, panel of ninety-seven kinases (Homo sapiens, UniProt Q13177); conditions: PAK2; screened at 3000 nM
T5 construct: purchased DiscoverX; host or cells: E. coli (BL21-derived, T7 phage display) or HEK-293
Procedure: as §1

[6] = biological target: T6, panel of ninety-seven kinases (Homo sapiens, UniProt P27448); conditions: MARK3; screened at 3000 nM
T6 construct: purchased DiscoverX; host or cells: E. coli (BL21-derived, T7 phage display) or HEK-293
Procedure: as §1

[7] = biological target: T7, panel of ninety-seven kinases (Homo sapiens, UniProt P31751); conditions: AKT2; screened at 3000 nM
T7 construct: purchased DiscoverX; host or cells: E. coli (BL21-derived, T7 phage display) or HEK-293
Procedure: as §1

[8] = biological target: T8, panel of ninety-seven kinases (Homo sapiens, UniProt Q9H4B4); conditions: PLK3; screened at 3000 nM
T8 construct: purchased DiscoverX; host or cells: E. coli (BL21-derived, T7 phage display) or HEK-293
Procedure: as §1

[9] = biological target: T9, panel of ninety-seven kinases (Homo sapiens, UniProt P45983); conditions: MAPK8; screened at 3000 nM
T9 construct: purchased DiscoverX; host or cells: E. coli (BL21-derived, T7 phage display) or HEK-293
Procedure: as §1

[10] = biological target: T10, panel of ninety-seven kinases (Homo sapiens, UniProt Q9UM73); conditions: ALK; screened at 3000 nM
T10 construct: purchased DiscoverX; host or cells: E. coli (BL21-derived, T7 phage display) or HEK-293
Procedure: as §1

[11] = biological target: T11, panel of ninety-seven kinases (Homo sapiens, UniProt P29317); conditions: EPHA2; screened at 3000 nM
T11 construct: purchased DiscoverX; host or cells: E. coli (BL21-derived, T7 phage display) or HEK-293
Procedure: as §1

[12] = biological target: T12, panel of ninety-seven kinases (Homo sapiens, UniProt P45984); conditions: MAPK9; screened at 3000 nM
T12 construct: purchased DiscoverX; host or cells: E. coli (BL21-derived, T7 phage display) or HEK-293
Procedure: as §1

[13] = biological target: T13, panel of ninety-seven kinases (Homo sapiens, UniProt P36896); conditions: ACVR1B; screened at 3000 nM
T13 construct: purchased DiscoverX; host or cells: E. coli (BL21-derived, T7 phage display) or HEK-293
Procedure: as §1

[14] = biological target: T14, panel of ninety-seven kinases (Homo sapiens, UniProt Q9H093); conditions: NUAK2; screened at 3000 nM
T14 construct: purchased DiscoverX; host or cells: E. coli (BL21-derived, T7 phage display) or HEK-293
Procedure: as §1

[15] = biological target: T15, panel of ninety-seven kinases (Homo sapiens, UniProt Q86UX6); conditions: STK32C; screened at 3000 nM
T15 construct: purchased DiscoverX; host or cells: E. coli (BL21-derived, T7 phage display) or HEK-293
Procedure: as §1

[16] = biological target: T16, panel of ninety-seven kinases (Homo sapiens, UniProt Q9HBH9); conditions: MKNK2; screened at 3000 nM
T16 construct: purchased DiscoverX; host or cells: E. coli (BL21-derived, T7 phage display) or HEK-293
Procedure: as §1

[17] = biological target: T17, panel of ninety-seven kinases (Homo sapiens, UniProt Q15831); conditions: STK11; screened at 3000 nM
T17 construct: purchased DiscoverX; host or cells: E. coli (BL21-derived, T7 phage display) or HEK-293
Procedure: as §1

[18] = biological target: T18, panel of ninety-seven kinases (Homo sapiens, UniProt P36897); conditions: TGFBR1; screened at 3000 nM
T18 construct: purchased DiscoverX; host or cells: E. coli (BL21-derived, T7 phage display) or HEK-293
Procedure: as §1

[19] = biological target: T19, panel of ninety-seven kinases (Homo sapiens, UniProt Q96GD4); conditions: AURKB; screened at 3000 nM
T19 construct: purchased DiscoverX; host or cells: E. coli (BL21-derived, T7 phage display) or HEK-293
Procedure: as §1

[20] = biological target: T20, panel of ninety-seven kinases (Homo sapiens, UniProt P08581); conditions: MET; screened at 3000 nM
T20 construct: purchased DiscoverX; host or cells: E. coli (BL21-derived, T7 phage display) or HEK-293
Procedure: as §1

[21] = biological target: T21, panel of ninety-seven kinases (Homo sapiens, UniProt P04049); conditions: RAF1; screened at 3000 nM
T21 construct: purchased DiscoverX; host or cells: E. coli (BL21-derived, T7 phage display) or HEK-293
Procedure: as §1

[22] = biological target: T22, panel of ninety-seven kinases (Homo sapiens, UniProt P53779); conditions: MAPK10; screened at 3000 nM
T22 construct: purchased DiscoverX; host or cells: E. coli (BL21-derived, T7 phage display) or HEK-293
Procedure: as §1

T5 sequence (Q13177 whole entry): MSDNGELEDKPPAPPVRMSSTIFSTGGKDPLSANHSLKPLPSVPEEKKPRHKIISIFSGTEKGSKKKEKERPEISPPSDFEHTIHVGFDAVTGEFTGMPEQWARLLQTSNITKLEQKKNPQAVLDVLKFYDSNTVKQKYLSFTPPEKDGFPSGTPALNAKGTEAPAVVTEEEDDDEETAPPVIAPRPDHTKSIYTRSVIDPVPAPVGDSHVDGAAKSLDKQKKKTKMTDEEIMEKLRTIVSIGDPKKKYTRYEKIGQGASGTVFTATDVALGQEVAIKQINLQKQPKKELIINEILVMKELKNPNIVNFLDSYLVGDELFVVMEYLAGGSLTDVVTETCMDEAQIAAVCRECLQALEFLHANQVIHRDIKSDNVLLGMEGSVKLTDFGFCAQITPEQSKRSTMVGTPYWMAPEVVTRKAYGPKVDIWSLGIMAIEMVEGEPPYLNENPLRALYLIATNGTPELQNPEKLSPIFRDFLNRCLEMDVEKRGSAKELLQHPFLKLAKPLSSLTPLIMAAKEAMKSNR
T13 sequence (P36896 24-505): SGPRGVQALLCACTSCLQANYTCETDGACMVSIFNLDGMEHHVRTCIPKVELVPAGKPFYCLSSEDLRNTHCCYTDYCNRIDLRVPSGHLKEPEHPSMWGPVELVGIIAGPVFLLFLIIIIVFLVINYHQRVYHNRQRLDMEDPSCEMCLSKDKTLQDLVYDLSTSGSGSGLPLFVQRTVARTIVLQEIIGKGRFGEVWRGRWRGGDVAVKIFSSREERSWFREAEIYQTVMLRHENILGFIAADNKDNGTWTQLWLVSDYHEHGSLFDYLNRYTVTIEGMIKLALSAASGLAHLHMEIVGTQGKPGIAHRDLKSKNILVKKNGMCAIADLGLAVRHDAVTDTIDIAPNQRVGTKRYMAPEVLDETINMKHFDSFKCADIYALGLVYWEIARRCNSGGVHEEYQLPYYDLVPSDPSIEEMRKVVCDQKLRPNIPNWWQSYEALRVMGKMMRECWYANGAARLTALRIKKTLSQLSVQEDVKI
T9 sequence (P45983 whole entry): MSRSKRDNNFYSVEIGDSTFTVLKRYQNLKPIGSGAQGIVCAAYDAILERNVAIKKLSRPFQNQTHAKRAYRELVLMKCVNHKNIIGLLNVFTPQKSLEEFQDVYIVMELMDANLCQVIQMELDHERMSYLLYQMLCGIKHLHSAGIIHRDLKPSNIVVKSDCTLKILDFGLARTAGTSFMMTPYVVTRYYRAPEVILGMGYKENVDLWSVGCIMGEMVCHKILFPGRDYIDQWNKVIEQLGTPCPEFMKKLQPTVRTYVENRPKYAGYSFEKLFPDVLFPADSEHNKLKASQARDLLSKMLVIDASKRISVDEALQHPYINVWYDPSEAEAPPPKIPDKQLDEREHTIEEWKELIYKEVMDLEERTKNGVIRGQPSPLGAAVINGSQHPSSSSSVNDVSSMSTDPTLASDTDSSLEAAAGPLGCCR
T15 sequence (Q86UX6 whole entry): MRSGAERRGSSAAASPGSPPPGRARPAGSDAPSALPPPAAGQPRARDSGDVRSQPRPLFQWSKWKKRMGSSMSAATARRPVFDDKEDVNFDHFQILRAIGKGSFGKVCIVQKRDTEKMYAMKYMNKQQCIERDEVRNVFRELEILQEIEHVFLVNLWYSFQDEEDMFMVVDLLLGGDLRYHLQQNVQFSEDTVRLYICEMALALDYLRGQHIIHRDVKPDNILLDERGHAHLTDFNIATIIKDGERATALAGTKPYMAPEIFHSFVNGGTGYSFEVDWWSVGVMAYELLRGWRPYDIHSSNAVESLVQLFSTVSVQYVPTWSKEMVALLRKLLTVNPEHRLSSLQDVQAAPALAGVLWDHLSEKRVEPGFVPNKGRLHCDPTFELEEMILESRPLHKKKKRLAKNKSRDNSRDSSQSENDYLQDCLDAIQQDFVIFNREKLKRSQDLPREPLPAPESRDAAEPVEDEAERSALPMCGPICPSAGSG
T20 sequence (P08581 25-1390): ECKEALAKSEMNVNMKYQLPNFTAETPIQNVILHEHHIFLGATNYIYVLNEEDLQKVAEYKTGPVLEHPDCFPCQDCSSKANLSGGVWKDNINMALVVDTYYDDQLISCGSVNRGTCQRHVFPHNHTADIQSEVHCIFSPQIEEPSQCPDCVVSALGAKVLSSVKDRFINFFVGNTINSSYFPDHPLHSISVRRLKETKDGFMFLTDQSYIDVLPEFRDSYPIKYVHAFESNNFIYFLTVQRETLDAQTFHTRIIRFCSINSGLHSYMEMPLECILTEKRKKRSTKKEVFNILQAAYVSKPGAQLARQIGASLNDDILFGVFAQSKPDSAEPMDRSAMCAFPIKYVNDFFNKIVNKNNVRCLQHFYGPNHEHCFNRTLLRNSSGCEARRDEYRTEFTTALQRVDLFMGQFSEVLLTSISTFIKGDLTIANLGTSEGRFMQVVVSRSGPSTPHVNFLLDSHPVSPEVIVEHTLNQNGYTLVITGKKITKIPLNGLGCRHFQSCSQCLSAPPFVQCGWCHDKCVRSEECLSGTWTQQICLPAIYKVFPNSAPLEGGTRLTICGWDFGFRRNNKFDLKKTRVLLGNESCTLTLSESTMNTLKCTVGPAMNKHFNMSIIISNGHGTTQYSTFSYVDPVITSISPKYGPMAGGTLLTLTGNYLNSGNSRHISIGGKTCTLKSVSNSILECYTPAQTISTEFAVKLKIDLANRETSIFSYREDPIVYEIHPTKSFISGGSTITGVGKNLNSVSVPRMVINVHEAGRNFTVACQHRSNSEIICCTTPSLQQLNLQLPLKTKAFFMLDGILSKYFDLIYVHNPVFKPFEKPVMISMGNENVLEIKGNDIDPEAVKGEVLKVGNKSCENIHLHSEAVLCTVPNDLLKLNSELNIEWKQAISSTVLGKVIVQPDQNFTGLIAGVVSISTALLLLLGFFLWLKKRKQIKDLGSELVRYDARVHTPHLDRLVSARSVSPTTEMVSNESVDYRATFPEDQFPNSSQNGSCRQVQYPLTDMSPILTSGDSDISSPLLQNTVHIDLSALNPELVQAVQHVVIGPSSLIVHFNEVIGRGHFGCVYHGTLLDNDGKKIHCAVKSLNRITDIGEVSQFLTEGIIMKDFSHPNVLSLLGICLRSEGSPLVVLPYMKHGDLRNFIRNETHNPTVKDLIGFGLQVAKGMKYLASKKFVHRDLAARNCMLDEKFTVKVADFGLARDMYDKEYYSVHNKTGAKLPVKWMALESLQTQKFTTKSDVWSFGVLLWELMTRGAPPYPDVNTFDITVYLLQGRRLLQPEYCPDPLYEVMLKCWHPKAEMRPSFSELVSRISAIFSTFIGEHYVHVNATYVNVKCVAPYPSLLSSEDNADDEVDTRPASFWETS
T16 sequence (Q9HBH9 whole entry): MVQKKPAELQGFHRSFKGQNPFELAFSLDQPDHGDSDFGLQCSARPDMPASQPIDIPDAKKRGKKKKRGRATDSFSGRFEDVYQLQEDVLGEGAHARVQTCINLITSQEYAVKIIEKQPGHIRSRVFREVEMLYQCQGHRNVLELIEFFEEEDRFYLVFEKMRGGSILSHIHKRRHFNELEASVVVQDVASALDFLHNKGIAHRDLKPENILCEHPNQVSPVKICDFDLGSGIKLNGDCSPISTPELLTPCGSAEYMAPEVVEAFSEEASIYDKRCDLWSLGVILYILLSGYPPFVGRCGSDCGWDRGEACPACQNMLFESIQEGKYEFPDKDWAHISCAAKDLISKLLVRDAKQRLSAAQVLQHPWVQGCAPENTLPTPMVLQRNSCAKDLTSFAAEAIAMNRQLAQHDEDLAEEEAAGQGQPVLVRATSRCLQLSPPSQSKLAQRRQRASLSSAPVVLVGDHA
T12 sequence (P45984 whole entry): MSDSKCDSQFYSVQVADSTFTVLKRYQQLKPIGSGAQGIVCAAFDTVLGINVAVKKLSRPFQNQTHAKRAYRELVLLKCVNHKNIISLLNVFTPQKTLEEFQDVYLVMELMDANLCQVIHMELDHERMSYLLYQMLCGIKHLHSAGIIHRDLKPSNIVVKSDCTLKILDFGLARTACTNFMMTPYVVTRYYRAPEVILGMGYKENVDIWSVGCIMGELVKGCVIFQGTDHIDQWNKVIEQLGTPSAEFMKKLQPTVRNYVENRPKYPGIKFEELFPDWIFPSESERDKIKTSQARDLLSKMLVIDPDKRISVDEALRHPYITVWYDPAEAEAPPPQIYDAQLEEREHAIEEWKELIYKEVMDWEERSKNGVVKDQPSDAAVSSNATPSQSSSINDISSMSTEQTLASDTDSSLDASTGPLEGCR
T21 sequence (P04049 whole entry): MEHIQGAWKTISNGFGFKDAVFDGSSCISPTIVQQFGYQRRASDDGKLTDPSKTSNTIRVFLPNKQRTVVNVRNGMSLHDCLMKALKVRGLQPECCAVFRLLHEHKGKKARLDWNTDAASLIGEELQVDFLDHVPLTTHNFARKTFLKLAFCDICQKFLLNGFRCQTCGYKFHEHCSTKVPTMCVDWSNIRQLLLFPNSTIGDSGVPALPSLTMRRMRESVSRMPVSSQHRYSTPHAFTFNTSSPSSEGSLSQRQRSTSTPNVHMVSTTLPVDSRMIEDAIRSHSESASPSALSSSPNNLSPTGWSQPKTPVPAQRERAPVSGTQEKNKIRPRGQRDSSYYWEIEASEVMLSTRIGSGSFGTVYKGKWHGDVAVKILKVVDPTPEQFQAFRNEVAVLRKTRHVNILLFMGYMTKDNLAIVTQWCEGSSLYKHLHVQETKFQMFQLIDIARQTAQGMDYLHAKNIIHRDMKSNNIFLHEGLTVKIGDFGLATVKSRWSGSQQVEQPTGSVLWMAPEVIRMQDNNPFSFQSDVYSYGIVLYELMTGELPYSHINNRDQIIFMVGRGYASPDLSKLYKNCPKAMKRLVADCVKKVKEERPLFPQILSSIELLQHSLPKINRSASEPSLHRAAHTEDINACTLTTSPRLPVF

% Ctrl @ 3 μM [1]: 100 % Ctrl
% Ctrl @ 3 μM [2]: 87 % Ctrl
% Ctrl @ 3 μM [3]: 98 % Ctrl
% Ctrl @ 3 μM [4]: 100 % Ctrl
% Ctrl @ 3 μM [5]: 100 % Ctrl
% Ctrl @ 3 μM [6]: 100 % Ctrl
% Ctrl @ 3 μM [7]: 100 % Ctrl
% Ctrl @ 3 μM [8]: 87 % Ctrl
% Ctrl @ 3 μM [9]: 77 % Ctrl
% Ctrl @ 3 μM [10]: 89 % Ctrl
% Ctrl @ 3 μM [11]: 100 % Ctrl
% Ctrl @ 3 μM [12]: 80 % Ctrl
% Ctrl @ 3 μM [13]: 96 % Ctrl
% Ctrl @ 3 μM [14]: 99 % Ctrl
% Ctrl @ 3 μM [15]: 100 % Ctrl
% Ctrl @ 3 μM [16]: 85 % Ctrl
% Ctrl @ 3 μM [17]: 81 % Ctrl
% Ctrl @ 3 μM [18]: 95 % Ctrl
% Ctrl @ 3 μM [19]: 84 % Ctrl
% Ctrl @ 3 μM [20]: 100 % Ctrl
% Ctrl @ 3 μM [21]: 92 % Ctrl
% Ctrl @ 3 μM [22]: 93 % Ctrl
Compound: CN(C)CCNC(=O)c1ccc(-c2ccc(-c3ccc(Cl)cc3)n2-c2ccccc2C(F)(F)F)cc1 (single isomer, unassigned) [Atropisomer A-2]
